Results on 1 molecule are retold here after patent US7416741B2, “Copper lowering treatment of inflammatory and fibrotic diseases” (The Regents of the University of Michigan, priority 2002, dated 2008).

One assay relates to Aβ40 and Aβ42. Put plainly: Aβ40 and Aβ42 ELISA in brain homogenates of Tg2576 mice. The class given is in vivo. As to conditions: Ex 8, TM 0.7 mg/mouse daily from 9 to 15 months of age. On the procedure:
A study is carried out in an mouse model of Alzheimer's disease. The mouse model is the Tg2576 mouse model, as described above in the Description of the Invention and in further detail in Gau et al., 2002 (J Gau et al., Amer. J. Pathology, 160(2):731-738 [2002]; J Q Trojanowski, Amer. J. Pathology, 160(2):409-411 [2002]). These mice begin developing amyloid plaques at about 9 months of age and plaques are well developed by 15 months. The transgenic mice also develop progressive age-dependent cognitive and behavioral abnormalities described in the background.
Forty female Tg2576 mice, aged 3 months, are purchased from Tagonic Inc, and grown until 9 months of age, at which time they are divided into two groups of 20. One group begins treatment with TM at 9 months of age, and are treated until sacrifice at age 15 months. […] Cp is determined by an oxidase method. […] The weight of the mice is determined weekly. […]
After 6 months of treatment with water or TM, all mice in both groups are sacrificed painlessly, and the brains removed and divided sagitally. […] Analysis of amyloid plaque load in mouse brains is determined by light-microscopic semi-quantitative analysis of brain sections. Subtle effects of treatment are measured by a more rigorous quantitative analysis of amyloid plaques in brain sections to detect a significant difference. […]
A general note: In an ELISA, binding on a coated surface is turned into a signal by an enzyme label.

The test system of another assay is LEC rat model. As to conditions: LEC rats, late stages of liver disease; cited from earlier work.
A further assay deals with TGFβ. As to the kind of experiment: Lung TGFβ levels (ELISA or PAI-1 promoter-luciferase cell line), bleomycin model. It counts as in vivo, mouse. On the procedure: Lung TGFβ levels were measured using either ELISA with a kit from R&D Systems (Minneapolis, Minn.), or using a cell line stably transfected with a plasminogen activator inhibitor-1 (PAI-1) promoter-luciferase construct (M Abe et al., Analytical Biochemistry, 216:276-284 [1994]). Briefly for the latter assay, mink lung epithelial cells transfected with the PAI-1 promoter construct were incubated with the indicated activated (by pre-acidification) test samples diluted (1:2 dilution) in fresh media. After a 24 hr incubation, the cells were lysed with reporter lysis buffer (Promega, Madison, Wis.). Luciferase activity was measured by the luciferase assay system (Promega) and read using a Reporter microplate luminometer (Turner Designs, Sunnyvale, Calif.). Human TGFβ1 (R&D Systems) was used as a standard.

A further assay deals with Cp. As to the kind of experiment: Serum Cp in the Con A mouse model. It counts as in vivo. To be noted: Ex 5 Exp 1; after fourth Con A injection. From the text:
Twenty-four hours after each of the first three injections, one mouse from each group was bled, and serum ALT measured. In this experiment, TM was started in the TM treated mice before the first Con A injection. After the fourth injection of Con A, all the mice were bled for ALT and Cp measurements and the experiment terminated. The Cp levels in TM treated mice were 25-50% of non-TM treated animals.

Regarding `[SH-].[SH-].[S]=[Mo]=[S]` [TM, tetrathiomolybdate], the “mean reduction in Aβ40 and Aβ42 levels in brain homogenates” value in the assay with Aβ40 and Aβ42 was “up to 50%”. Moreover, the “efficacy against copper toxicity / liver disease” value in the assay with LEC rat model was “very effective”. For the same molecule, the “lung TGFβ protein level (ELISA), bleomycin-induced increase” value with TGFβ (Ex 2 Exp 1, bleomycin/TM, day 7, p=0.06) is “inhibited this increase”. The “lung TGFβ protein levels (PAI-1 promoter-luciferase), bleomycin-induced increase” value in the assay on TGFβ (Ex 2 Exp 2, TM from day 5, day 21, not statistically significant) was “completely inhibited this increase”. Further, the “lung TGFβ protein levels (ELISA)” value in the assay with TGFβ (Ex 2 Exp 3, TM started 5 days prior to bleomycin (Bleo/TM-5), p=0.04) is on record as “significantly inhibited”. In the assay with Cp, the “Cp levels in TM treated mice relative to non-TM treated animals” value is listed as 25-50%.
